Source: US11685785B2, “Methods and antibodies for modulation of immunoresponse” (Ascendo Biotechnology, Inc., priority 2015, dated 2023)

Test system: LPS-primed monocytes
Assay: Surface molecule expression on LPS-primed human monocytes (flow cytometry)
Format: cell-based
Conditions: LPS 100 ng/ml, 18 hr, 10 μM compound vs DMSO control; flow cytometry MFI
Experimental: Human monocytes were stimulated with LPS (100 ng/ml) in the presence of either an isotype control IgG, or anti-CD11b antibody (ICRF44) for 18 hr. The cells were harvested and HLA-DR, PD-L1, CD80 and CD86 molecules were analyzed using flow cytometry. Surface molecule expression is presented as the MFI. Values are presented as the mean±SEM from 3 independent experiments.
FIGS. 2 A and B show the effect of cell adhesion to fibrinogen and reduction of PD-L1 expression by binding CD11b, respectively. […] 25000 of K562/CD11b cells adhered to the bottom of fibrinogen (20 μg/ml)-coated wells in the presence of 10 μM ML-C19-A or DMSO at 37° C. for 20 min. The results were quantitated by luciferase-based CellTiter-Glo (Promega CO.). Each bar represents mean±SEM of triplicate determinations from a representative experiment. […] Human monocytes were stimulated with LPS (100 ng/ml) in the presence of either DMSO control or 10 μM of ML-C19-A for 18 hr. The cells were harvested and PD-L1 molecules were analyzed using flow cytometry. Surface molecule expression is presented as the MFI. Values are presented as the mean±SEM from 10 independent experiments.
Primed-monocytes were incubated in the presence of either an isotype control IgG, anti-CD11b antibody (ICRF44) or humanized anti-CD11b antibodies for 18 hr. The cells were harvested and PD-L1 expression on monocytes was analyzed using flow cytometry. […]

SMILES: NS(=O)(=O)c1ccc(N2C(=O)c3cccc4cccc(c34)C2=O)cc1 [ML-C19-A]
- PD-L1 expression in LPS-primed monocytes: inhibitory
